In PubChem BioAssay (NCI):
Where “and” joins values, the source holds several entries; their conditions need not be identical. Identical values can stand only once.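 Growth conditions: 96-well plates. Treatment: test compound, 48 hours, 5 concentrations. Analysis: linear interpolation between bracketing concentrations; unreached endpoints set to highest concentration. At the GI50, growth is halved. The concentration for full growth arrest is given as TGI.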

The compounds below were run on U251 CNS (assay: DTP human tumour cell line panel, 48 h).

Compound | GI50 [µM] | TGI [µM]
Cc1cc(NN=C(c2ccc(O)cc2)c2ccc(O)cc2)c([N+](=O)[O-])cc1[N+](=O)[O-] | 5.39 | 81.2
Nc1ccccc1C#Cc1ccccc1C#Cc1cccs1 | 13.6 | 27.3
OCC(O)C(O)C(O)C(O)c1nnc2c(-c3ccccc3)nc3ccccc3n12 (stereo unspecified) | > 100 | > 100
COc1ccc(/C=N/NS(=O)(=O)c2ccccc2)cc1 | – | > 100
CCOc1ccc2cc(-c3nn(CC4CCNCC4)c4ncnc(N)c34)ccc2c1 | 13.7 | 29.5
O=C(O)CCCCC1CCSS1 (stereo unspecified) | – | > 100
O=C1C(=O)C2(CC1S(=O)(=O)c1ccccc1)c1ccccc1-c1ccccc12 (stereo unspecified) | – | 34.3
O=c1oc2c3ccc4ccccc4c3n(CCN3CCCCC3)c2c2ccccc12 | – | 65
Cc1ccc(S(=O)C(C)C(Cl)c2ccccc2)cc1 (stereo unspecified) | – | > 100
COc1ccccc1C(=O)N(Cc1ccccc1)c1ccc(Cl)c(C(=O)OC(C)C)c1 | – | > 100
OCCN(CO)CO | – | > 100
COc1ccc(Br)c(C(=O)N2CCc3ccccc32)c1N | – | > 100
COc1ccc(C)cc1NC(=S)C#N | – | > 100
CCCCCC[C@H]1C(=O)O[C@H](C)[C@H](NC(=O)c2cccc(NC=O)c2OC)C(=O)O[C@@H](C)[C@@H]1OC(=O)CCC (tested in a mixture with another compound) | 8.2 | 21.5
C=C1C[C@@H]2O[C@H]3[C@H]4[C@@H](CC[C@@](C)(OC(=O)CCC)[C@H]42)[C@@H](C)C(=O)O[C@@]3(C)CC[C@H]1OO | 16.5 | 30.1

The compounds below were run on OVCAR-8 ovarian (assay: DTP human tumour cell line panel, 48 h).

Compound | GI50 | TGI
CS(=O)(=O)Nc1cc(-c2ccc3ncnc(Nc4cccc(Cl)c4)c3c2)cnc1Cl | 1.24 µM | 30.3 µM
CN(C)c1ccc(C(O)C2=CC(=O)c3ccccc3C2=O)cc1 (stereo unspecified) | 11.6 µM | 32.8 µM
Clc1ccc(CN2CCCN(Cc3ccc(Cl)cc3)C2c2cc3ccccc3c3ccccc23)cc1 | – | > 100 µM
COc1ccc2c(c1OC)O/C(=C\c1ncc([N+](=O)[O-])n1C)C2=O | 0.639 µM | 3.66 µM
CC1(C)N=C(N)N=C(N)N1c1cccc(CCc2ccccc2)c1 | 0.634 µM | > 100 µM
O=C1Nc2ccc3c(c2/C1=C\c1cc2c(cc1Br)OCO2)OCO3 | 0.855 µM | 4.87 µM
COc1cc2cc(Oc3cccc(NC(=O)Nc4cc(C(F)(F)F)cc(C(F)(F)F)c4)c3)c(C)nc2cc1OC | 1.63 µM | 4.22 µM
COc1ccc(C2NC(=S)NC3=C2CCOc2c3ccc3ccccc23)cc1 (stereo unspecified) | 32.6 µM | > 100 µM
COc1cc2ncnc(Oc3cccc(NC(=O)Nc4cc(C(C)(C)C(F)(F)F)on4)c3)c2cc1OC | 2.54 µM and 3.09 µM | 21.5 µM and > 10 µM
COc1ccc(/C=C/C(=O)c2cc3c(N)c(C(=O)Nc4ccc(OC)cc4)sc3nc2C)cc1 | 0.334 µM | > 50 µM
CCOC(=O)[C@@H]1CSC(CC)=C(C(=O)O)N1 | > 100 µM | > 100 µM
C=C1CC[C@H]2C(C)=CC[C@H]3C(=C)C(=O)O[C@@H]3[C@@H]12 | – | > 100 µM
COc1ccc(-c2csc(Nc3cccc(-c4csc(C)n4)c3)n2)cc1 | 2.27 µM | > 31.2 µM
COc1cc(/C=C2\SC(N3CCCCC3)=NC2=O)ccc1OCCCCCCOc1ccc(/C=C2\SC(N3CCCCC3)=NC2=O)cc1OC | 4.95 µM | 31.1 µM
CCCCCCCCCCCCCCCC[n+]1ccccc1 | 0.331 µM and 0.704 µM | 1.28 µM and 3.07 µM
CCOC1Oc2ccc(C)cc2C(=O)/C1=C\Nc1ccc(S(N)(=O)=O)cc1 (stereo unspecified) | 9.97 µM | 27.7 µM
Cc1cc(NN=C(c2ccc(O)cc2)c2ccc(O)cc2)c([N+](=O)[O-])cc1[N+](=O)[O-] | 4.08 µM | > 100 µM
Nc1ccccc1C#Cc1ccccc1C#Cc1cccs1 | 42.7 µM | > 100 µM
OCC(O)C(O)C(O)C(O)c1nnc2c(-c3ccccc3)nc3ccccc3n12 (stereo unspecified) | 53.5 µM | > 100 µM
COc1ccc(/C=N/NS(=O)(=O)c2ccccc2)cc1 | – | > 100 µM
O=C(O)CCCCC1CCSS1 (stereo unspecified) | – | > 100 µM
O=C1C(=O)C2(CC1S(=O)(=O)c1ccccc1)c1ccccc1-c1ccccc12 (stereo unspecified) | – | 34.5 µM
O=c1oc2c3ccc4ccccc4c3n(CCN3CCCCC3)c2c2ccccc12 | – | > 67.3 µM
Cc1ccc(S(=O)C(C)C(Cl)c2ccccc2)cc1 (stereo unspecified) | – | > 100 µM
COc1ccccc1C(=O)N(Cc1ccccc1)c1ccc(Cl)c(C(=O)OC(C)C)c1 | – | > 100 µM
OCCN(CO)CO | – | > 100 µM
COc1ccc(Br)c(C(=O)N2CCc3ccccc32)c1N | – | > 100 µM
COc1ccc(C)cc1NC(=S)C#N | – | > 100 µM
CCCCCC[C@H]1C(=O)O[C@H](C)[C@H](NC(=O)c2cccc(NC=O)c2OC)C(=O)O[C@@H](C)[C@@H]1OC(=O)CCC (tested in a mixture with another compound) | 12.1 µM | 33.4 µM
C=C1C[C@@H]2O[C@H]3[C@H]4[C@@H](CC[C@@](C)(OC(=O)CCC)[C@H]42)[C@@H](C)C(=O)O[C@@]3(C)CC[C@H]1OO | 22.6 µM | 51.6 µM

What follows are compounds tested on RXF 393 renal (assay: DTP human tumour cell line panel, 48 h).

Compound | GI50 | TGI
CN(C)c1ccc(C(O)C2=CC(=O)c3ccccc3C2=O)cc1 (stereo unspecified) | 4.29 µM | 56.6 µM
Clc1ccc(CN2CCCN(Cc3ccc(Cl)cc3)C2c2cc3ccccc3c3ccccc23)cc1 | – | > 100 µM
COc1ccc2c(c1OC)O/C(=C\c1ncc([N+](=O)[O-])n1C)C2=O | 0.774 µM | 2.27 µM
CC1(C)N=C(N)N=C(N)N1c1cccc(CCc2ccccc2)c1 | 3.82 µM | > 100 µM
O=C1Nc2ccc3c(c2/C1=C\c1cc2c(cc1Br)OCO2)OCO3 | 0.901 µM | 3.78 µM
COc1cc2cc(Oc3cccc(NC(=O)Nc4cc(C(F)(F)F)cc(C(F)(F)F)c4)c3)c(C)nc2cc1OC | 2.06 µM | 4.79 µM
COc1ccc(C2NC(=S)NC3=C2CCOc2c3ccc3ccccc23)cc1 (stereo unspecified) | 1.57 µM | 48 µM
COc1cc2ncnc(Oc3cccc(NC(=O)Nc4cc(C(C)(C)C(F)(F)F)on4)c3)c2cc1OC | 2.16 µM and 2.68 µM | 8.14 µM and > 10 µM
COc1ccc(/C=C/C(=O)c2cc3c(N)c(C(=O)Nc4ccc(OC)cc4)sc3nc2C)cc1 | 0.124 µM | –
CCOC(=O)[C@@H]1CSC(CC)=C(C(=O)O)N1 | > 100 µM | > 100 µM
COc1ccc(-c2csc(Nc3cccc(-c4csc(C)n4)c3)n2)cc1 | 1.87 µM | > 14.9 µM
COc1cc(/C=C2\SC(N3CCCCC3)=NC2=O)ccc1OCCCCCCOc1ccc(/C=C2\SC(N3CCCCC3)=NC2=O)cc1OC | 4.94 µM | 16.9 µM
CCCCCCCCCCCCCCCC[n+]1ccccc1 | 0.224 µM | 0.688 µM
CCOC1Oc2ccc(C)cc2C(=O)/C1=C\Nc1ccc(S(N)(=O)=O)cc1 (stereo unspecified) | 8.92 µM | 21.3 µM
Cc1cc(NN=C(c2ccc(O)cc2)c2ccc(O)cc2)c([N+](=O)[O-])cc1[N+](=O)[O-] | 1.79 µM | 6.56 µM
Nc1ccccc1C#Cc1ccccc1C#Cc1cccs1 | 18.2 µM | > 100 µM
OCC(O)C(O)C(O)C(O)c1nnc2c(-c3ccccc3)nc3ccccc3n12 (stereo unspecified) | 56.8 µM | > 100 µM
COc1ccc(/C=N/NS(=O)(=O)c2ccccc2)cc1 | – | > 100 µM
CCOc1ccc2cc(-c3nn(CC4CCNCC4)c4ncnc(N)c34)ccc2c1 | 3.96 µM | 17.1 µM
O=C1C(=O)C2(CC1S(=O)(=O)c1ccccc1)c1ccccc1-c1ccccc12 (stereo unspecified) | – | 35.6 µM
O=c1oc2c3ccc4ccccc4c3n(CCN3CCCCC3)c2c2ccccc12 | – | 29.3 µM
Cc1ccc(S(=O)C(C)C(Cl)c2ccccc2)cc1 (stereo unspecified) | – | > 100 µM
COc1ccccc1C(=O)N(Cc1ccccc1)c1ccc(Cl)c(C(=O)OC(C)C)c1 | – | 62.1 µM
OCCN(CO)CO | – | > 100 µM
COc1ccc(Br)c(C(=O)N2CCc3ccccc32)c1N | – | > 100 µM
COc1ccc(C)cc1NC(=S)C#N | – | > 100 µM
CCCCCC[C@H]1C(=O)O[C@H](C)[C@H](NC(=O)c2cccc(NC=O)c2OC)C(=O)O[C@@H](C)[C@@H]1OC(=O)CCC (tested in a mixture with another compound) | 15.3 µM | 32.4 µM
C=C1C[C@@H]2O[C@H]3[C@H]4[C@@H](CC[C@@](C)(OC(=O)CCC)[C@H]42)[C@@H](C)C(=O)O[C@@]3(C)CC[C@H]1OO | 27.6 µM | 88.6 µM
